For assay [1], the target named is JAK1 (Homo sapiens (Human), UniProt P23458). Description: Jak biochemical HTRF assay, JAK1. As to conditions: recombinant purified GST-tagged catalytic domain; HTRF format; [ATP] 31.8 μM. The text has this: (§1) Jak Biochemical HTRF Assay Protocol
(§2) Subsequent reagent additions employed an Agilent Bravo.
For orientation: TR-FRET usually uses a lanthanide donor and a delayed reading to cut background.

For assay [2], the target named is JAK2 (Homo sapiens (Human), UniProt O60674). Description: Jak biochemical HTRF assay, JAK2. As to conditions: recombinant purified GST-tagged catalytic domain, HTRF format.
Source text: as §1, §2

Structures are written as SMILES.

As usually defined, the IC50 is the concentration at which inhibition is half-maximal.

Chain of JAK2 (O60674 849-1124): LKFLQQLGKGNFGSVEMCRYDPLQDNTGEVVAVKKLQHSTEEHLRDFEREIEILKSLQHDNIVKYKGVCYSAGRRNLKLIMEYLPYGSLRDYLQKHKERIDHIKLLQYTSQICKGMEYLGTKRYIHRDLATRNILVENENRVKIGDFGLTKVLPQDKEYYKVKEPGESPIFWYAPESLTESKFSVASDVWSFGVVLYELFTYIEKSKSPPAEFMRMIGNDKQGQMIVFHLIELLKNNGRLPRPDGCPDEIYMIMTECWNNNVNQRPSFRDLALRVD
Chain of JAK1 (P23458 875-1153): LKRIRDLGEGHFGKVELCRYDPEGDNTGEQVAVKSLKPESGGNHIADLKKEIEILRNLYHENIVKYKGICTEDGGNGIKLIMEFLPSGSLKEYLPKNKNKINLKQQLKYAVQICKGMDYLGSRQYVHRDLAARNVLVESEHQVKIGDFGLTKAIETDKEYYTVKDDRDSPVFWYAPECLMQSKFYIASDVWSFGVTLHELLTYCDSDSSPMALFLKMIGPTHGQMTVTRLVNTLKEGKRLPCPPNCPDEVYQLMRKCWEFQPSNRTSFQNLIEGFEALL

With `N#C[C@@H]1CN(C(=O)OC2Cc3ccccc3C2)CC[C@@H]1n1cc(C(N)=O)c(Nc2ccc(F)cc2)n1` (racemic) [Example 5-42, 2,3-dihydro-1H-inden-2-yl (3R,4S and 3S,4R)-4-{4-carbamoyl-3-[(4-fluorophenyl)amino]-1H-pyrazol-1-yl}-3-cyanopiperidine-1-carboxylate], the IC50 is 652 nM in assay [1] and over 1500 nM in assay [2] ([ATP] 8.5 μM).
`N#Cc1ccc(Nc2nn([C@H]3COCC[C@@H]3C#N)cc2C(N)=O)cc1` (single isomer, unassigned) [Example 9-35, 3-[(4-cyanophenyl)amino]-1-[(3R, 4S or 3S,4R)-4-cyanotetrahydro-2H-pyran-3-yl]-1H-pyrazole-4-carboxamide]: the IC50 in assay [1] came out at 0.07 nM; in assay [2] ([ATP] […]) it was 0.7 nM.
`CN1CCC(COC(=O)N2CC[C@@H](n3cc(C(N)=O)c(Nc4ccc(F)cc4)n3)[C@H](C#N)C2)CC1` (racemic) [Example 5-7, (1-methylpiperidin-4-yl)methyl (3R,4R and 3S,4S)-4-{4-carbamoyl-3-[(4-fluorophenyl)amino]-1H-pyrazol-1-yl}-3-cyanopiperidine-1-carboxylate]: the IC50 worked out at 23 nM in assay [1] and 1090 nM in assay [2] ([ATP] 8.5 μM).
Consider `CC(C)(C)COC(=O)N1CC[C@@H](C#N)C(n2cc(C(N)=O)c(Nc3ccc(F)cc3)n2)C1` (mixture of isomers) [Example 5-80, 2,2-dimethylpropyl (3S,4R and 3R,4S)-3-{4-carbamoyl-3-[(4-fluorophenyl)amino]-1H-pyrazol-1-yl}-4-cyanopiperidine-1-carboxylate], for which the IC50 stood at 6 nM in assay [1] and 145 nM in assay [2] ([ATP] 8.5 μM).
In the same order, the values of `CC(OC(=O)N1CC[C@@H](n2cc(C(N)=O)c(Nc3ccc(F)cc3)n2)[C@H](C#N)C1)C(F)(F)F` (mixture of isomers) [Example 5-1, 2,2,2-Trifluoro-1-methylethyl(3R,4R and 3S,4S)-4-{4-carbamoyl-3-[(4-fluorophenyl)amino]-1H-pyrazol-1-yl}-3-cyanopiperidine-1-carboxylate] are 15 nM and 387 nM.
In the same order, the values of `Cc1ncc(CN2CC[C@@H](n3cc(C(N)=O)c(Nc4ccc(F)cc4)n3)[C@H](C#N)C2)s1` (racemic) [Example 6-37, 1-{(3R,4R and 3S,4S)-3-cyano-1-[(2-methyl-1,3-thiazol-5-yl)methyl]piperidin-4-yl}-3-[(4-fluorophenyl)amino]-1H-pyrazole-4-carboxamide] are 5 nM and 104 nM.
Taken in the same sequence, the figures for `N#C[C@H]1CCOC[C@@H]1n1cc(C(N)=O)c(Nc2cncc(F)c2)n1` (single isomer, unassigned) [Example 9-30, 1-[(3R,4S or 3S,4R)-4-cyanotetrahydro-2H-pyran-3-yl]-3-[(5-fluoropyridin-3-yl)amino]-1H-pyrazole-4-carboxamide] were 83 nM and 306 nM.
For the compound `CCOC(=O)COC(=O)N1CC[C@@H](C#N)C(n2cc(C(N)=O)c(Nc3ccc(F)cc3)n2)C1` (mixture of isomers) [Example 5-84, 2-ethoxy-2-oxoethyl (3S,4R and 3R,4S)-3-{4-carbamoyl-3-[(4-fluorophenyl)amino]-1H-pyrazol-1-yl}-4-cyanopiperidine-1-carboxylate], the IC50 in assay [1] was 6 nM; in assay [2] ([ATP] 8.5 μM), 187 nM.
For the compound `CN(C)CC(C)(C)COC(=O)N1CC[C@@H](C#N)C(n2cc(C(N)=O)c(Nc3ccc(F)cc3)n2)C1` (mixture of isomers) [Example 5-75, 3-(dimethylamino)-2,2-dimethylpropyl (3S,4R and 3R,4S)-3-{4-carbamoyl-3-[(4-fluorophenyl)amino]-1H-pyrazol-1-yl}-4-cyanopiperidine-1-carboxylate], the IC50 in assay [1] stood at 16 nM; in assay [2] ([ATP] 8.5 μM), 444 nM.
Taken in the same sequence, the figures for `Cc1c(CN2CC[C@@H](C#N)[C@H](n3cc(C(N)=O)c(Nc4ccc(F)cc4)n3)C2)cnn1C` (racemic) [Example 6-15, 1-{(3S,4R and 3R,4S)-4-cyano-1-[(1,5-dimethyl-1H-pyrazol-4-yl)methyl]piperidin-3-yl}-3-[(4-fluorophenyl)amino]-1H-pyrazole-4-carboxamide] were 1 nM and 20 nM.
In the same order, the values of `N#C[C@@H]1CN(Cc2cccnn2)CC[C@H]1n1cc(C(N)=O)c(Nc2ccc(F)cc2)n1` (racemic) [Example 6-22, 1-[(3R,4R and 3S,4S)-3-cyano-1-(pyridazin-3-ylmethyl)piperidin-4-yl]-3-[(4-fluorophenyl)amino]-1H-pyrazole-4-carboxamide] are 19 nM and 220 nM.
Taken in the same sequence, the figures for `N#C[C@@H]1CCN(Cc2ccc(F)cn2)C[C@H]1n1cc(C(N)=O)c(Nc2ccc(F)cc2)n1` (racemic) [Example 6-16, 1-{(3S,4R and 3R,4S)-4-cyano-1-[(5-fluoropyridin-2-yl)methyl]piperidin-3-yl}-3-[(4-fluorophenyl)amino]-1H-pyrazole-4-carboxamide] were 0.7 nM and 14 nM.
`N#C[C@@H]1CN(C(=O)OC(CF)CF)CC[C@H]1n1cc(C(N)=O)c(Nc2ccc(F)cc2)n1` (racemic) [Example 5-31, 2-fluoro-1-(fluoromethyl)ethyl (3R,4R and 3S,4S)-4-{4-carbamoyl-3-[(4-fluorophenyl)amino]-1H-pyrazol-1-yl}-3-cyanopiperidine-1-carboxylate]: the IC50 in assay [1] was 6 nM; in assay [2] ([ATP] 8.5 μM), 133 nM.
With `N#C[C@@H]1CN(C(=O)OCC2(N)CC2)CC[C@H]1n1cc(C(N)=O)c(Nc2ccc(F)cc2)n1` (racemic) [Example 5-8, (1-aminocyclopropyl)methyl (3R,4R and 3S,4S)-4-{4-carbamoyl-3-[(4-fluorophenyl)amino]-lH-pyrazol-1-yl}-3-cyanopiperidine-1-carboxylate], the IC50 in assay [1] amounted to 13 nM; in assay [2] ([ATP] 8.5 μM), 703 nM.
In the same order, the values of `N#C[C@@H]1CN(C(=O)OCCN2CCCC2)CC[C@H]1n1cc(C(N)=O)c(Nc2ccc(F)cc2)n1` (racemic) [Example 5-19, 2-pyrrolidin-1-ylethyl (3R,4R and 3S,4S)-4-{4-carbamoyl-3-[(4-fluorophenyl)amino]-1H-pyrazol-1-yl}-3-cyanopiperidine-1-carboxylate] are 22 nM and 1100 nM.
In the same order, the values of `Cc1c(CN2CC[C@@H](n3cc(C(N)=O)c(Nc4ccc(F)cc4)n3)[C@H](C#N)C2)cnn1C` (racemic) [Example 6-34, 1-{(3R,4R and 3S,4S)-3-cyano-1-[(1,5-dimethyl-1H-pyrazol-4-yl)methyl]piperidin-4-yl}-3-[(4-fluorophenyl)amino]-1H-pyrazole-4-carboxamide] are 10 nM and 111 nM.
`N#C[C@@H]1CCN(C(=O)OC2COC2)CC1n1cc(C(N)=O)c(Nc2ccc(F)cc2)n1` (mixture of isomers) [Example 5-89, oxetan-3-yl (3S,4R and 3R,4S)-3-{4-carbamoyl-3-[(4-fluorophenyl)amino]-1H-pyrazol-1-yl}-4-cyanopiperidine-1-carboxylate]: the figures for the IC50 in assay [1] and in assay [2] ([ATP] 8.5 μM) were 3 nM and 43 nM, respectively.
`N#C[C@@H]1CN(C(=O)OC2COC2)CC[C@@H]1n1cc(C(N)=O)c(Nc2ccc(F)cc2)n1` (racemic) [Example 5-57, oxetan-3-yl (3R,4S and 3S,4R)-4-{4-carbamoyl-3-[(4-fluorophenyl)amino]-1H-pyrazol-1-yl}-3-cyanopiperidine-1-carboxylate]: the IC50 worked out at 295 nM in assay [1] and 1110 nM in assay [2] ([ATP] 8.5 μM).
In the same order, the values of `N#C[C@@H]1CN(C(=O)OC2COC2)CC[C@H]1n1cc(C(N)=O)c(Nc2ccc(F)cc2)n1` (racemic) [Example 5-5, oxetan-3-yl (3R,4R and 3S,4S)-4-{4-carbamoyl-3-[(4-fluorophenyl)amino]-1H-pyrazol-1-yl}-3-cyanopiperidine-1-carboxylate] are 12 nM and 185 nM.
Taken in the same sequence, the figures for `CN(C)CCOC(=O)N1CC[C@@H](C#N)C(n2cc(C(N)=O)c(Nc3ccc(F)cc3)n2)C1` (mixture of isomers) [Example 5-86, 2-(dimethylamino)ethyl (3S,4R and 3R,4S)-3-{4-carbamoyl-3-[(4-fluorophenyl)amino]-1H-pyrazol-1-yl}-4-cyanopiperidine-1-carboxylate] were 9 nM and 352 nM.
As to `N#C[C@@H]1CN(CC2CCC2)CC[C@H]1n1cc(C(N)=O)c(Nc2ccc(F)cc2)n1` [Example 6-40, 1-[(3R,4R)-3-cyano-1-(cyclobutylmethyl)piperidin-4-yl]-3-[(4-fluorophenyl)amino]-1H-pyrazole-4-carboxamide], the IC50 is 5 nM in assay [1] and 66 nM in assay [2] ([ATP] […]).
In the case of `CC1(COC(=O)N2CC[C@@H](C#N)C(n3cc(C(N)=O)c(Nc4ccc(F)cc4)n3)C2)CC1` (mixture of isomers) [Example 5-72, (1-methylcyclopropyl)methyl (3S,4R and 3R,4S)-3-{4-carbamoyl-3-[(4-fluorophenyl)amino]-1H-pyrazol-1-yl}-4-cyanopiperidine-1-carboxylate], the IC50 is 5 nM in assay [1] and 69 nM in assay [2] ([ATP] 8.5 μM).
In the same order, the values of `N#C[C@@H]1CN(C(=O)OCCCc2ccccc2)CC[C@@H]1n1cc(C(N)=O)c(Nc2ccc(F)cc2)n1` (racemic) [Example 5-55, 3-phenylpropyl (3R,4S and 3S,4R)-4-{4-carbamoyl-3-[(4-fluorophenyl)amino]-1H-pyrazol-1-yl}-3-cyanopiperidine-1-carboxylate] are 350 nM and over 1500 nM.
As for `CN(C)C(=O)c1ccc(Nc2nn([C@H]3COCC[C@@H]3C#N)cc2C(N)=O)cc1` (single isomer, unassigned) [Example 9-34, 1-[(3R,4S or 3S,4R)-4-cyanotetrahydro-2H-pyran-3-yl]-3-{[4-(dimethylcarbamoyl)phenyl]amino}-1H-pyrazole-4-carboxamide], the IC50 in assay [2] ([ATP] 8.5 μM) was found to be 0.2 nM.
Same read-out and setting: next, `C#CCCOC(=O)N1CC[C@H](n2cc(C(N)=O)c(Nc3ccc(F)cc3)n2)[C@H](C#N)C1` (racemic) [Example 5-40, but-3-yn-1-yl (3R,4S and 3S,4R)-4-{4-carbamoyl-3-[(4-fluorophenyl)amino]-1H-pyrazol-1-yl}-3-cyanopiperidine-1-carboxylate]: 1390 nM.

These data come from patent US9394282B2, “Pyrazole carboxamides as Janus kinase inhibitors” (Merck Sharp & Dohme Corp., priority 2011, dated 2016).
